Data: US7138361B2, “Herbicidal heterocycles” (E. I. du Pont de Nemours and Company, priority 2000, dated 2006)

How the values were obtained:
Assay type in all cases: in vivo
[1] = test system: bermudagrass (Cynodon dactylon); assay: Test C preemergence; conditions: for Plant response rating, Bermudagrass: scale 0 to 100, 0 no effect, 100 complete control; for Plant response rating (0 to 100 where 0 is no effect and 100 is complete control), Bermudagrass: preemergence, visual evaluation after 12 to 14 days
Outline: (§1)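 Response scores (0 no effect to 100 complete control) came from visual comparison with untreated controls 12 to 14 days after treatment. Preemergence application was made to seeded soil; postemergence, to plants at the 1- to 4-leaf stage.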

[2] = test system: morningglory (Ipomoea hederacea); assay: Test C preemergence; conditions: for Plant response rating, Morningglory: scale 0 to 100, 0 no effect, 100 complete control
Outline: as §1

[3] = test system: yellow nutsedge (Cyperus esculentus); assay: Test C preemergence; conditions: for Plant response rating, Nutsedge: scale 0 to 100, 0 no effect, 100 complete control
Outline: as §1

corn (Zea mays) = assay: Test C preemergence; conditions: for Plant response rating, Corn: scale 0 to 100, 0 no effect, 100 complete control; for Plant response rating (0 to 100), Corn: preemergence, visual evaluation after 12 to 14 days
Outline: as §1

Sunflower = assay: Test C preemergence; conditions: Rate 125 g/ha; scale 0 to 100, 0 no effect, 100 complete control
[4] = test system: giant foxtail (Setaria faberii); assay: Test C preemergence; conditions: for Plant response rating, Foxtail, Giant: scale 0 to 100, 0 no effect, 100 complete control; for Plant response rating (0 to 100), Foxtail, Giant: preemergence, visual evaluation after 12 to 14 days
Outline: as §1

[5] = test system: woolly cupgrass (Eriochloa villosa); assay: Test C preemergence; conditions: for Plant response rating, Cupgrass, Woolly: scale 0 to 100, 0 no effect, 100 complete control; for Plant response rating (0 to 100), Cupgrass, Woolly: preemergence, visual evaluation after 12 to 14 days
Outline: as §1

[6] = test system: cocklebur (Xanthium strumarium); assay: Test C preemergence; conditions: for Plant response rating, Cocklebur: scale 0 to 100, 0 no effect, 100 complete control; for Plant response rating (0 to 100), Cocklebur: preemergence, visual evaluation after 12 to 14 days
Outline: as §1

[7] = test system: velvetleaf (Abutilon theophrasti); assay: Test C preemergence; conditions: for Plant response rating, Velvetleaf: scale 0 to 100, 0 no effect, 100 complete control
Outline: as §1

[8] = test system: johnsongrass (Sorghum halepense); assay: Test C preemergence; conditions: for Plant response rating, Johnsongrass: scale 0 to 100, 0 no effect, 100 complete control; for Plant response rating (0 to 100), Johnsongrass: preemergence, visual evaluation after 12 to 14 days
Outline: as §1

[9] = test system: Surinam grass (Brachiaria decumbens); assay: Test C preemergence; conditions: for Plant response rating, Surinam grass: scale 0 to 100, 0 no effect, 100 complete control; for Plant response rating (0 to 100), Surinam grass: preemergence, visual evaluation after 12 to 14 days
Outline: as §1

[10] = test system: common ragweed (Ambrosia elatior); assay: Test C preemergence; conditions: for Plant response rating, Ragweed, Common: scale 0 to 100, 0 no effect, 100 complete control
Outline: as §1

[11] = test system: lambsquarters (Chenopodium album); assay: Test C preemergence; conditions: for Plant response rating, Lambsquarters: scale 0 to 100, 0 no effect, 100 complete control
Outline: as §1

[12] = test system: crabgrass (Digitaria sanguinalis); assay: Test C preemergence; conditions: for Plant response rating, Crabgrass: scale 0 to 100, 0 no effect, 100 complete control; for Plant response rating (0 to 100), Crabgrass: preemergence, visual evaluation after 12 to 14 days
Outline: as §1

kochia (Kochia scoparia) = assay: Test C preemergence; conditions: for Plant response rating, Kochia: scale 0 to 100, 0 no effect, 100 complete control; for Plant response rating (0 to 100), Kochia: preemergence, visual evaluation after 12 to 14 days
Outline: as §1

[13] = test system: goosegrass (Eleusine indica); assay: Test C preemergence; conditions: for Plant response rating, Goosegrass: scale 0 to 100, 0 no effect, 100 complete control; for Plant response rating (0 to 100), Goosegrass: preemergence, visual evaluation after 12 to 14 days
Outline: as §1

Nightshade = assay: Test C preemergence; conditions: scale 0 to 100, 0 no effect, 100 complete control
soybean (Glycine max) = assay: Test C preemergence; conditions: for Plant response rating, Soybean: scale 0 to 100, 0 no effect, 100 complete control
Outline: as §1

[14] = test system: pigweed (Amaranthus retroflexus); assay: Test C preemergence; conditions: for Plant response rating, Pigweed: scale 0 to 100, 0 no effect, 100 complete control
Outline: as §1

[15] = test system: barnyardgrass (Echinochloa crus-galli); assay: Test C flooded paddy test; conditions: for Barnyardgrass plant response rating: Flooded Paddy, scale 0 to 100, 0 no effect, 100 complete control; for Plant response rating, Barnyardgrass: flooded paddy test, scale 0 to 100 (0 no effect, 100 complete control)
Outline: (§2)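 Response on a 0-to-100 scale (no effect to complete control) was assessed by eye versus controls. Plants had reached 2 leaves when treated in flooded paddy conditions. The assessment took place after 12–14 days of greenhouse growth.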

[16] = test system: smallflower flatsedge (Cyperus difformis); assay: Test C flooded paddy test; conditions: for Flatsedge plant response rating: Flooded Paddy, scale 0 to 100, 0 no effect, 100 complete control; for Plant response rating, Flatsedge: flooded paddy test, scale 0 to 100 (0 no effect, 100 complete control)
Outline: as §2

[17] = test system: duck salad (Heteranthera limosa); assay: Test C flooded paddy test; conditions: for Ducksalad plant response rating: Flooded Paddy, scale 0 to 100, 0 no effect, 100 complete control; for Plant response rating, Ducksalad: flooded paddy test, scale 0 to 100 (0 no effect, 100 complete control)
Outline: as §2

[18] = preemergence, Rate 500 g/ha, visual evaluation after 12 to 14 days

SMILES: CCC(C)c1ccn(C2CCN(c3cccc(OC(C)C)c3)C2=O)n1 (centres unmarked) [Compound 83]
- Plant response rating, Bermudagrass ([1]; Rate 62 g/ha): 100
- Plant response rating, Bermudagrass ([1]; Rate 125 g/ha): 100
- Plant response rating (0 to 100 where 0 is no effect and 100 is complete control), Bermudagrass ([1]; Rate 250 g/ha): 100
- Plant response rating (0 to 100 where 0 is no effect and 100 is complete control), Bermudagrass ([1]; Rate 500 g/ha): 100
- Plant response rating, Morningglory ([2]; Rate 62 g/ha): 0
- Plant response rating, Morningglory ([2]; Rate 125 g/ha): 0
- Plant response rating (0 to 100), Morningglory [2, 18]: 0
- Plant response rating, Morningglory ([2]; preemergence, Rate 250 g/ha): 0
- Plant response rating, Nutsedge ([3]; Rate 62 g/ha): 0
- Plant response rating, Nutsedge ([3]; Rate 125 g/ha): 0
- Plant response rating (0 to 100), Nutsedge [3, 18]: 0
- Plant response rating, Nutsedge ([3]; preemergence, Rate 250 g/ha): 0
- Plant response rating, Corn (corn (Zea mays); Rate 62 g/ha): 0
- Plant response rating, Corn (corn (Zea mays); Rate 125 g/ha): 0
- Plant response rating (0 to 100), Corn (corn (Zea mays); Rate 250 g/ha): 0
- Plant response rating (0 to 100), Corn (corn (Zea mays); Rate 500 g/ha): 10
- Plant response rating, Sunflower (Sunflower): 30
- Plant response rating, Foxtail, Giant ([4]; Rate 62 g/ha): 0
- Plant response rating, Foxtail, Giant ([4]; Rate 125 g/ha): 100
- Plant response rating (0 to 100), Foxtail, Giant ([4]; Rate 250 g/ha): 60
- Plant response rating (0 to 100), Foxtail, Giant ([4]; Rate 500 g/ha): 0
- Plant response rating, Cupgrass, Woolly ([5]; Rate 62 g/ha): 80
- Plant response rating, Cupgrass, Woolly ([5]; Rate 125 g/ha): 90
- Plant response rating (0 to 100), Cupgrass, Woolly ([5]; Rate 250 g/ha): 100
- Plant response rating (0 to 100), Cupgrass, Woolly ([5]; Rate 500 g/ha): 100
- Plant response rating, Cocklebur ([6]; Rate 62 g/ha): 0
- Plant response rating, Cocklebur ([6]; Rate 125 g/ha): 0
- Plant response rating (0 to 100), Cocklebur ([6]; Rate 250 g/ha): 30
- Plant response rating (0 to 100), Cocklebur ([6]; Rate 500 g/ha): 0
- Plant response rating, Velvetleaf ([7]; Rate 125 g/ha): 30
- Plant response rating (0 to 100), Velvetleaf [7, 18]: 40
- Plant response rating, Velvetleaf ([7]; preemergence, Rate 250 g/ha): 0
- Plant response rating, Johnsongrass ([8]; Rate 62 g/ha): 20
- Plant response rating, Johnsongrass ([8]; Rate 125 g/ha): 30
- Plant response rating (0 to 100), Johnsongrass ([8]; Rate 250 g/ha): 30
- Plant response rating (0 to 100), Johnsongrass ([8]; Rate 500 g/ha): 30
- Plant response rating, Surinam grass ([9]; Rate 62 g/ha): 40
- Plant response rating, Surinam grass ([9]; Rate 125 g/ha): 50
- Plant response rating (0 to 100), Surinam grass ([9]; Rate 250 g/ha): 90
- Plant response rating (0 to 100), Surinam grass ([9]; Rate 500 g/ha): 100
- Plant response rating, Ragweed, Common ([10]; Rate 125 g/ha): 0
- Plant response rating (0 to 100), Ragweed, Common [10, 18]: 100
- Plant response rating, Ragweed, Common ([10]; preemergence, Rate 250 g/ha): 0
- Plant response rating, Lambsquarters ([11]; Rate 62 g/ha): 100
- Plant response rating, Lambsquarters ([11]; Rate 125 g/ha): 100
- Plant response rating (0 to 100), Lambsquarters [11, 18]: 100
- Plant response rating, Lambsquarters ([11]; preemergence, Rate 250 g/ha): 100
- Plant response rating, Crabgrass ([12]; Rate 62 g/ha): 100
- Plant response rating, Crabgrass ([12]; Rate 125 g/ha): 100
- Plant response rating (0 to 100), Crabgrass ([12]; Rate 250 g/ha): 100
- Plant response rating (0 to 100), Crabgrass ([12]; Rate 500 g/ha): 100
- Plant response rating, Kochia (kochia (Kochia scoparia); Rate 62 g/ha): 60
- Plant response rating, Kochia (kochia (Kochia scoparia); Rate 125 g/ha): 90
- Plant response rating (0 to 100), Kochia (kochia (Kochia scoparia); Rate 250 g/ha): 90
- Plant response rating (0 to 100), Kochia (kochia (Kochia scoparia); Rate 500 g/ha): 100
- Plant response rating, Goosegrass ([13]; Rate 62 g/ha): 100
- Plant response rating, Goosegrass ([13]; Rate 125 g/ha): 100
- Plant response rating (0 to 100), Goosegrass ([13]; Rate 250 g/ha): 100
- Plant response rating (0 to 100), Goosegrass ([13]; Rate 500 g/ha): 100
- Plant response rating, Nightshade (Nightshade; Rate 62 g/ha): 0
- Plant response rating, Nightshade (Nightshade; Rate 125 g/ha): 50
- Plant response rating, Nightshade (Nightshade; Rate 250 g/ha): 60
- Plant response rating, Soybean (soybean (Glycine max); Rate 125 g/ha): 0
- Plant response rating (0 to 100), Soybean (soybean (Glycine max); [18]): 10
- Plant response rating, Soybean (soybean (Glycine max); preemergence, Rate 250 g/ha): 0
- Plant response rating, Pigweed ([14]; Rate 125 g/ha): 50
- Plant response rating (0 to 100), Pigweed [14, 18]: 100
- Plant response rating, Pigweed ([14]; preemergence, Rate 250 g/ha): 100
- Barnyardgrass plant response rating ([15]; Rate 250 g/ha): 70
- Barnyardgrass plant response rating ([15]; Rate 500 g/ha): 100
- Plant response rating, Barnyardgrass ([15]; Rate 62 g/ha): 60
- Plant response rating, Barnyardgrass ([15]; Rate 125 g/ha): 70
- Flatsedge plant response rating ([16]; Rate 250 g/ha): 100
- Flatsedge plant response rating ([16]; Rate 500 g/ha): 100
- Plant response rating, Flatsedge ([16]; Rate 62 g/ha): 90
- Plant response rating, Flatsedge ([16]; Rate 125 g/ha): 100
- Ducksalad plant response rating ([17]; Rate 250 g/ha): 100
- Ducksalad plant response rating ([17]; Rate 500 g/ha): 100
- Plant response rating, Ducksalad ([17]; Rate 62 g/ha): 40
- Plant response rating, Ducksalad ([17]; Rate 125 g/ha): 40
